Assay results as given in US12479840B2, “HMG-CoA reductase degradation inducing compound” (Uppthera, priority 2020, dated 2025).

Each compound was assayed against T1, HMG-CoA reductase (Homo sapiens, UniProt P04035) (assay: HMG-CoA reductase (HMGCR) degradation in HepG2 cells by western blotting). Conditions: treated for 18 hours, ratio of HMG-CoA reductase to GAPDH, read-out: DC50.
T1 construct: endogenous in cells; host or cells: HepG2 (Korea Cell Line Bank)
T1 sequence (P04035 1-888): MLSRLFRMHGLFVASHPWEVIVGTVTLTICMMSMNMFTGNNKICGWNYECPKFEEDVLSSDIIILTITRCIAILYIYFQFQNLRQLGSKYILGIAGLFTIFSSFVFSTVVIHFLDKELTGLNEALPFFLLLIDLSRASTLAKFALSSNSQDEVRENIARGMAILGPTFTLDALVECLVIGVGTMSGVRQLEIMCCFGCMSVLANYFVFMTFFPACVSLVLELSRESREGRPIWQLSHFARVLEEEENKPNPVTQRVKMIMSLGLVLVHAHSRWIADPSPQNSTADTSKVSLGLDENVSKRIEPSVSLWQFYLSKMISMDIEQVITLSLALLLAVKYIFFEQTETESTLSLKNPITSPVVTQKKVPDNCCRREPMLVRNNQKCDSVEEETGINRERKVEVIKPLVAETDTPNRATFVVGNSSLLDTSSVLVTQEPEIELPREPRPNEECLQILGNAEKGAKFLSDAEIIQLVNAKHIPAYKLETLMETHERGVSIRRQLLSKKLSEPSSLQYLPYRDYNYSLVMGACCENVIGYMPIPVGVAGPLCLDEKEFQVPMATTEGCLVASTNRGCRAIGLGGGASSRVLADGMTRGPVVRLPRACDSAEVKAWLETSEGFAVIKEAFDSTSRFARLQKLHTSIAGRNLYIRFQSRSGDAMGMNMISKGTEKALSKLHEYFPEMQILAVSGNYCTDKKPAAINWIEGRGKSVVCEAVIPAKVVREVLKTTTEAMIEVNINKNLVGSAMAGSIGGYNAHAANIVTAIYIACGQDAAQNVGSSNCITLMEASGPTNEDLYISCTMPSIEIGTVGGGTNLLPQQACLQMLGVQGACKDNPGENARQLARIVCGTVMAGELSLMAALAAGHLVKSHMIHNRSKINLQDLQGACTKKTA
Type: cell-based
In short: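 HepG2 cells (passage P105–P110) treated 18 hours with compounds in 10-point three-fold dilutions from 3 μM. RIPA lysates (15 μg protein, BCA-quantified) run on SDS-PAGE and immunoblotted for HMGCR (1:500) with GAPDH (1:20000) as loading control, primary antibodies 16 hours at 4° C.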
With C[C@H]1C=C2C=C[C@H](C)[C@H](CC[C@@H]3C[C@@H](O[Si](C)(C)C(C)(C)C)CC(=O)O3)[C@H]2[C@@H](OC(=O)NCCOCCOCCNc2cccc3c2C(=O)N(C2CCC(=O)NC2=O)C3=O)C1 (stereo partly drawn) [Compound 46, (1S,3R,7S,8S,8aR)-8-(2-((2R,4R)-4-((tert-butyldimethylsilyl)oxy)-6-oxotetrahydro-2H-pyran-2-yl)ethyl)-3,7-dimethyl-1,2,3,7,8,8a-hexahydronaphthalen-1-yl (2-(2-(2-((2-(2,6-dioxopiperidin-3-yl)-1,3-dioxoisoindolin-4-yl)amino)ethoxy)ethoxy)ethyl)carbamate] the DC50 was less than 50 nM. C[C@H]1C=C2C=C[C@H](C)[C@H](CC[C@@H]3C[C@@H](O[Si](C)(C)C(C)(C)C)CC(=O)O3)[C@H]2[C@@H](OC(=O)NCCOCCOCCOCCNc2cccc3c2C(=O)N(C2CCC(=O)NC2=O)C3=O)C1 (stereo partly drawn) [Compound 47, (1S,3R,7S,8S,8aR)-8-(2-((2R,4R)-4-((tert-butyldimethylsilyl)oxy)-6-oxotetrahydro-2H-pyran-2-yl)ethyl)-3,7-dimethyl-1,2,3,7,8,8a-hexahydronaphthalen-1-yl (2-(2-(2-(2-((2-(2,6-dioxopiperidin-3-yl)-1,3-dioxoisoindolin-4-yl)amino)ethoxy)ethoxy)ethoxy)ethyl)carbamate] showed a DC50 of less than 50 nM. C[C@H]1C=C2C=C[C@H](C)[C@H](CC[C@@H]3C[C@@H](O[Si](C)(C)C(C)(C)C)CC(=O)O3)[C@H]2[C@@H](OC(=O)NCCOCCOCCOCCOCCNc2cccc3c2C(=O)N(C2CCC(=O)NC2=O)C3=O)C1 (stereo partly drawn) [Compound 48, (1S,3R,7S,8S,8aR)-8-(2-((2R,4R)-4-((tert-butyldimethylsilyl)oxy)-6-oxotetrahydro-2H-pyran-2-yl)ethyl)-3,7-dimethyl-1,2,3,7,8,8a-hexahydronaphthalen-1-yl (14-((2-(2,6-dioxopiperidin-3-yl)-1,3-dioxoisoindolin-4-yl)amino)-3,6,9,12-tetraoxatetradecyl)carbamate] gave a DC50 of less than 50 nM. With C[C@H]1C=C2C=C[C@H](C)[C@H](CC[C@@H]3C[C@@H](O[Si](C)(C)C(C)(C)C)CC(=O)O3)[C@H]2[C@@H](OC(=O)NCCOCCOCCOCCOCCOCCNc2cccc3c2C(=O)N(C2CCC(=O)NC2=O)C3=O)C1 (stereo partly drawn) [Compound 49, (1S,3R,7S,8S,8aR)-8-(2-((2R,4R)-4-((tert-butyldimethylsilyl)oxy)-6-oxotetrahydro-2H-pyran-2-yl)ethyl)-3,7-dimethyl-1,2,3,7,8,8a-hexahydronaphthalen-1-yl (17-((2-(2,6-dioxopiperidin-3-yl)-1,3-dioxoisoindolin-4-yl)amino)-3,6,9,12,15-pentaoxaheptadecyl)carbamate] the DC50 was less than 50 nM. C[C@H]1C=C2C=C[C@H](C)[C@H](CC[C@@H]3C[C@@H](O[Si](C)(C)C(C)(C)C)CC(=O)O3)[C@H]2[C@@H](OC(=O)NCCOCCOCCOCCOCCOCCOCCNc2cccc3c2C(=O)N(C2CCC(=O)NC2=O)C3=O)C1 (stereo partly drawn) [Compound 50, (1S,3R,7S,8S,8aR)-8-(2-((2R,4R)-4-((tert-butyldimethylsilyl)oxy)-6-oxotetrahydro-2H-pyran-2-yl)ethyl)-3,7-dimethyl-1,2,3,7,8,8a-hexahydronaphthalen-1-yl (20-((2-(2,6-dioxopiperidin-3-yl)-1,3-dioxoisoindolin-4-yl)amino)-3,6,9,12,15,18-hexaoxaicosyl)carbamate] gave a DC50 of less than 50 nM. For C[C@H]1C=C2C=C[C@H](C)[C@H](CC[C@@H]3C[C@@H](O[Si](C)(C)C(C)(C)C)CC(=O)O3)[C@H]2[C@@H](OC(=O)NCCCCCNc2cccc3c2C(=O)N(C2CCC(=O)NC2=O)C3=O)C1 (stereo partly drawn) [Compound 51, (1S,3R,7S,8S,8aR)-8-(2-((2R,4R)-4-((tert-butyldimethylsilyl)oxy)-6-oxotetrahydro-2H-pyran-2-yl)ethyl)-3,7-dimethyl-1,2,3,7,8,8a-hexahydronaphthalen-1-yl (5-((2-(2,6-dioxopiperidin-3-yl)-1,3-dioxoisoindolin-4-yl)amino)pentyl)carbamate], the DC50 was less than 50 nM. Compound C[C@H]1C=C2C=C[C@H](C)[C@H](CC[C@@H]3C[C@@H](O[Si](C)(C)C(C)(C)C)CC(=O)O3)[C@H]2[C@@H](OC(=O)NCCCCCCNc2cccc3c2C(=O)N(C2CCC(=O)NC2=O)C3=O)C1 (stereo partly drawn) [Compound 52, (1S,3R,7S,8S,8aR)-8-(2-((2R,4R)-4-((tert-butyldimethylsilyl)oxy)-6-oxotetrahydro-2H-pyran-2-yl)ethyl)-3,7-dimethyl-1,2,3,7,8,8a-hexahydronaphthalen-1-yl (6-((2-(2,6-dioxopiperidin-3-yl)-1,3-dioxoisoindolin-4-yl)amino)hexyl)carbamate] has a DC50 of less than 50 nM. For C[C@H]1C=C2C=C[C@H](C)[C@H](CC[C@@H]3C[C@@H](O[Si](C)(C)C(C)(C)C)CC(=O)O3)[C@H]2[C@@H](OC(=O)NCCCCCCCNc2cccc3c2C(=O)N(C2CCC(=O)NC2=O)C3=O)C1 (stereo partly drawn) [Compound 53, (1S,3R,7S,8S,8aR)-8-(2-((2R,4R)-4-((tert-butyldimethylsilyl)oxy)-6-oxotetrahydro-2H-pyran-2-yl)ethyl)-3,7-dimethyl-1,2,3,7,8,8a-hexahydronaphthalen-1-yl (7-((2-(2,6-dioxopiperidin-3-yl)-1,3-dioxoisoindolin-4-yl)amino)heptyl)carbamate], the DC50 was less than 50 nM. In the case of C[C@H]1C=C2C=C[C@H](C)[C@H](CC[C@@H]3C[C@@H](O[Si](C)(C)C(C)(C)C)CC(=O)O3)[C@H]2[C@@H](OC(=O)NCCCCCCCCNc2cccc3c2C(=O)N(C2CCC(=O)NC2=O)C3=O)C1 (stereo partly drawn) [Compound 54, (1S,3R,7S,8S,8aR)-8-(2-((2R,4R)-4-((tert-butyldimethylsilyl)oxy)-6-oxotetrahydro-2H-pyran-2-yl)ethyl)-3,7-dimethyl-1,2,3,7,8,8a-hexahydronaphthalen-1-yl (8-((2-(2,6-dioxopiperidin-3-yl)-1,3-dioxoisoindolin-4-yl)amino)octyl)carbamate], the DC50 is reported as less than 50 nM. With C[C@H]1C=C2C=C[C@H](C)[C@H](CC[C@@H]3C[C@@H](O[Si](C)(C)C(C)(C)C)CC(=O)O3)[C@H]2[C@@H](OC(=O)NCCCCCCCCCNc2cccc3c2C(=O)N(C2CCC(=O)NC2=O)C3=O)C1 (stereo partly drawn) [Compound 55, (1S,3R,7S,8S,8aR)-8-(2-((2R,4R)-4-((tert-butyldimethylsilyl)oxy)-6-oxotetrahydro-2H-pyran-2-yl)ethyl)-3,7-dimethyl-1,2,3,7,8,8a-hexahydronaphthalen-1-yl (9-((2-(2,6-dioxopiperidin-3-yl)-1,3-dioxoisoindolin-4-yl)amino)nonyl)carbamate] the DC50 was less than 50 nM. C[C@H]1C=C2C=C[C@H](C)[C@H](CC[C@@H]3C[C@@H](O[Si](C)(C)C(C)(C)C)CC(=O)O3)[C@H]2[C@@H](OC(=O)NCCCCCCCCCCNc2cccc3c2C(=O)N(C2CCC(=O)NC2=O)C3=O)C1 (stereo partly drawn) [Compound 56, (1S,3R,7S,8S,8aR)-8-(2-((2R,4R)-4-((tert-butyldimethylsilyl)oxy)-6-oxotetrahydro-2H-pyran-2-yl)ethyl)-3,7-dimethyl-1,2,3,7,8,8a-hexahydronaphthalen-1-yl (10-((2-(2,6-dioxopiperidin-3-yl)-1,3-dioxoisoindolin-4-yl)amino)decyl)carbamate] gave a DC50 of less than 50 nM.
